Some results are limits rather than exact numbers.

T1 sequence (P31424 21-1203): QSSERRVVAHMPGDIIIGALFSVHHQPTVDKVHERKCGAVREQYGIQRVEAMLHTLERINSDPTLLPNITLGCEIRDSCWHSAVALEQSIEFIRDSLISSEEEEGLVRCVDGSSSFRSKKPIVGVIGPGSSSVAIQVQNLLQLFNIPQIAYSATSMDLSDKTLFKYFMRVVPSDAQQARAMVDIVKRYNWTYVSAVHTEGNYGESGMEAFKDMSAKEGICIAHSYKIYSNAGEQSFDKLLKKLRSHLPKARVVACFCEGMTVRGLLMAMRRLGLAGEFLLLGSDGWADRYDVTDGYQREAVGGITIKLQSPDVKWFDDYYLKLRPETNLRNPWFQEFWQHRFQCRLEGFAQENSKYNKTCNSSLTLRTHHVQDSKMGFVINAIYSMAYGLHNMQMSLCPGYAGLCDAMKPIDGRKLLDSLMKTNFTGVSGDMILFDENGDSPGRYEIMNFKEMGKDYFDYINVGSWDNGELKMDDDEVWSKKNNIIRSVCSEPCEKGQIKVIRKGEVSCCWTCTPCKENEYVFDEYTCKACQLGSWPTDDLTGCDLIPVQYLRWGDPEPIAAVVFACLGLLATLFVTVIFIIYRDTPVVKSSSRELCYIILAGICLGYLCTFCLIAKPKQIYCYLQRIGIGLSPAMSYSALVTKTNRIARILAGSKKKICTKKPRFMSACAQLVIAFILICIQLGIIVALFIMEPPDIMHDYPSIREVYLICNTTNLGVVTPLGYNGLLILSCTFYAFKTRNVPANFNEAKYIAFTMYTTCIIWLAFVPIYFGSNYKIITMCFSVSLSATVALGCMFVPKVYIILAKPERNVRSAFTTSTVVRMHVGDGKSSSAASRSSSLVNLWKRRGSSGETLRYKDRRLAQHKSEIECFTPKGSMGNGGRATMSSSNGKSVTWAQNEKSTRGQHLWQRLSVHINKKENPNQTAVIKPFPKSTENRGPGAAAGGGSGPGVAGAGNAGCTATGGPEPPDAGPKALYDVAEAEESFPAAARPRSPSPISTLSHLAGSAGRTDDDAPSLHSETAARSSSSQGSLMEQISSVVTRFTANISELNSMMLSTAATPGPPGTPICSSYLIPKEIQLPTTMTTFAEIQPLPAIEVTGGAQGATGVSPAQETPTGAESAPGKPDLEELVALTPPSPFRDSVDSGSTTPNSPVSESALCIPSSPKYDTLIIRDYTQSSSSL

This assay concerns the target T1, mGluR5 (Rattus norvegicus, UniProt P31424).
T1 construct: tissue Charles River Laboratories; host or cells: rat brain cortex membranes (Sprague-Dawley)
In words: mGluR5 binding assay ([3H]-MPEP radioligand competition). The conditions noted are these: competition with 3 nM [3H]-MPEP, rat brain cortical membranes, 1 h at 4 °C; mean of at least three independent experiments in duplicate. The text has this: Activity of compounds of the invention was examined following a radioligand binding technique using whole rat brain and tritiated 2-methyl-6-(phenylethynyl)-pyridine ([^3H]-MPEP) as a ligand following similar methods than those described in F. Gasparini et al. Bioorg. Med. Chem. Lett. 2002, 12, 407-409 and in J. F. Anderson et al. J. Pharmacol. Exp. Ther. 2002, 303, 3, 1044-1051.
Cortices were dissected out from brains of 200-300 g Sprague-Dawley rats (Charles River Laboratories, L'Arbresle, France). Tissues were homogenized in 10 volumes (vol/wt) of ice-cold 50 mM Hepes-NaOH (pH 7.4) using a Polytron disrupter (Kinematica AG, Luzern, Switzerland) and centrifuged for 30 min at 40,000 g. (4° C.). The supernatant was discarded and the pellet washed twice by resuspension in 10 volumes 50 mM HEPES-NaOH. Membranes were then collected by centrifugation and washed before final resuspension in 10 volumes of 20 mM HEPES-NaOH, pH 7.4. Protein concentration was determined by the Bradford method (Bio-Rad protein assay, Reinach, Switzerland) with bovine serum albumin as standard.
[^3H]-MPEP Binding Experiments:
Membranes were thawed and resuspended in binding buffer containing 20 mM HEPES-NaOH, 3 mM MgCl2, 3 mM CaCl2, 100 mM NaCl, pH 7.4. Competition studies were carried out by incubating for 1 h at 4° C.: 3 nM [^3H]-MPEP (39 Ci/mmol, Tocris, Cookson Ltd, Bristol, U.K.), 50 μg membrane and a concentration range of 0.003 nM-30 μM of compounds, for a total reaction volume of 300 μl. The non-specific binding was defined using 30 μM MPEP. Reaction was terminated by rapid filtration over glass-fiber filter plates (Unifilter 96-well GF/B filter plates, Perkin-Elmer, Schwerzenbach, Switzerland) using 4×400 μl ice cold buffer using cell harvester (Filtermate, Perkin-Elmer, Downers Grove, USA). Radioactivity was determined by liquid scintillation spectrometry using a 96-well plate reader (TopCount, Perkin-Elmer, Downers Grove, USA).
The inhibition curves were generated using the Prism GraphPad program (Graph Pad Software Inc, San Diego, USA). IC50 determinations were made from data obtained from 8 point-concentration response curves using a non linear regression analysis.
The table below represents the mean of IC50 obtained from at least three independent experiments of selected molecules performed in duplicate.
(In a radioligand displacement assay an active substance lowers the binding of a labelled ligand.)
Consider “2-(4-(3-Methyl-4-phenyl-1H-pyrazol-1-yl)but-1-ynyl)pyridine and 2-(4-(5-methyl-4-phenyl-1H-pyrazol-1-yl)but-1-ynyl)pyridine [Example 174]”, for which the half-maximal inhibitory concentration (IC50) is under 10 µM. With `Cc1nc(C#CCCc2ccccc2)cs1` [Example 1, 2-Methyl-(4-(4-phenyl)but-1-ynyl)thiazole] the figure was under 0.5 µM. On to `CCc1ccccc1-c1noc(CCC#Cc2ccccn2)n1` [Example 2, 2-(4-(3-(2-Ethylphenyl)-1,2,4-oxadiazol-5-yl)but-1-ynyl)pyridine], for which the IC50 was under 10 µM. The value for `O=C1c2ccccc2C(=O)N1CCC#Cc1ccccn1` [Example 3, 2-(4-(Pyridin-2-yl)but-3-ynyl)isoindoline-1,3-dione] was under 10 µM; that for `O=c1c2ccccc2cnn1CCC#Cc1ccccn1` [Example 4, 2-(4-(Pyridin-2-yl)but-3-ynyl)phthalazin-1(2H)-one] was under 10 µM.

`C(#Cc1ccc2ccccc2n1)CCc1ccccc1` [Example 5, 2-(4-Phenylbut-1-ynyl)quinoline] registered an IC50 of under 10 µM. The compound `C(#Cc1nc2ccccc2o1)CCc1ccccc1` [Example 7, 2-(4-Phenylbut-1-ynyl)benzo[d]oxazole] gave an IC50 of under 0.5 µM. With `Fc1ccc(-c2noc(CCC#Cc3ccccn3)n2)cc1` [Example 9, 2-(4-(3-(4-Fluorophenyl)-1,2,4-oxadiazol-5-yl)but-1-ynyl)pyridine], the IC50 is under 10 µM. In turn, `C(#Cc1ccccn1)CCc1nc(-c2ccccc2)no1` [Example 10] returned an IC50 of under 10 µM. Compound `CN(C(=O)CCC#Cc1ccccn1)c1ccc(F)cc1` [Example 13, N-(4-Fluorophenyl)-N-methyl-5-(pyridin-2-yl)pent-4-ynamide] yielded a half-inhibitory concentration (IC50) of under 0.5 µM. For the compound `C(#Cc1ccccn1)CCc1csc(-c2ccccc2)n1` [Example 14, 2-(4-(2-Phenylthiazol-4-yl)but-1-ynyl)pyridine], the IC50 was under 10 µM. The compound `Cc1ccccc1-c1noc(CCC#Cc2ccccn2)n1` [Example 15] showed a 50% inhibitory concentration (IC50) of under 0.5 µM. Take `C(#Cc1ccccn1)CCc1nc(Cc2ccccc2)no1` [Example 16, 2-(4-(3-Benzyl-1,2,4-oxadiazol-5-yl)but-1-ynyl)pyridine]: the IC50 was under 10 µM. `Fc1ccccc1Cc1noc(CCC#Cc2ccccn2)n1` [Example 17, 2-(4-(3-(2-Fluorobenzyl)-1,2,4-oxadiazol-5-yl)but-1-ynyl)pyridine] displayed an IC50 of under 10 µM. In the case of `Cc1ccccc1Cc1noc(CCC#Cc2ccccn2)n1` [Example 18, 2-(4-(3-(2-Methylbenzyl)-1,2,4-oxadiazol-5-yl)but-1-ynyl)pyridine], the IC50 was under 10 µM. On to `Fc1ccc(Cc2noc(CCC#Cc3ccccn3)n2)cc1` [Example 19, 2-(4-(3-(4-Fluorobenzyl)-1,2,4-oxadiazol-5-yl)but-1-ynyl)pyridine], for which the IC50 was under 10 µM. `COc1ccc(Cc2noc(CCC#Cc3ccccn3)n2)cc1` [Example 20, 2-(4-(3-(4-Methoxybenzyl)-1,2,4-oxadiazol-5-yl)but-1-ynyl)pyridine] had an IC50 of under 10 µM. For `CC(C)c1noc(CCC#Cc2ccccn2)n1` [Example 21, 2-(4-(3-Isopropyl-1,2,4-oxadiazol-5-yl)but-1-ynyl)pyridine], the IC50 was under 10 µM. With `CCCCc1noc(CCC#Cc2ccccn2)n1` [Example 22, 2-(4-(3-Butyl-1,2,4-oxadiazol-5-yl)but-1-ynyl)pyridine], the IC50 was under 10 µM. Consider `Fc1cccc(Cc2noc(CCC#Cc3ccccn3)n2)c1` [Example 23, 2-(4-(3-(3-Fluorobenzyl)-1,2,4-oxadiazol-5-yl)but-1-ynyl)pyridine], for which the IC50 was under 10 µM.

Compound `COc1cccc(Cc2noc(CCC#Cc3ccccn3)n2)c1` [Example 24, 2-(4-(3-(3-Methoxybenzyl)-1,2,4-oxadiazol-5-yl)but-1-ynyl)pyridine] showed a 50% inhibitory concentration (IC50) of under 10 µM. `Fc1ccccc1-c1noc(CCC#Cc2ccccn2)n1` [Example 25, 2-(4-(3-(2-Fluorophenyl)-1,2,4-oxadiazol-5-yl)but-1-ynyl)pyridine] showed an IC50 of under 0.5 µM. The compound `Fc1cccc(-c2noc(CCC#Cc3ccccn3)n2)c1` [Example 26, 2-(4-(3-(3-Fluorophenyl)-1,2,4-oxadiazol-5-yl)but-1-ynyl)pyridine] registered an IC50 of under 10 µM.

As to `Cc1ccc2oc(CCC#Cc3ccccn3)nc2c1` [Example 28, 5-Methyl-(2-(4-pyridin-2-yl)but-3-ynyl)benzo[d]oxazole], the concentration for half-maximal inhibition (IC50) is under 10 µM. Regarding `Cc1ccc2nc(CCC#Cc3ccccn3)oc2c1` [Example 29, 6-Methyl-(2-(4-pyridin-2-yl)but-3-ynyl)benzo[d]oxazole], the IC50 is under 10 µM.

Consider `Cc1cccc2oc(CCC#Cc3ccccn3)nc12` [Example 30, 4-Methyl-(2-(4-pyridin-2-yl)but-3-ynyl)benzo[d]oxazole], for which the IC50 was under 10 µM.

Turning to `Cc1nc(C#CCCc2nc3ccccc3o2)cs1` [Example 31, 2-(4-(2-Methylthiazol-4-yl)but-3-ynyl)benzo[d]oxazole], the IC50 is under 0.05 µM. `C(#Cc1ccccn1)CCc1cn2ccccc2n1` [Example 33, 2-(4-(Pyridin-2-yl)but-3-ynyl)-imidazo[1,2-a]pyridine] yielded an IC50 of under 0.05 µM. For the compound `COc1ccccc1-c1noc(CCC#Cc2ccccn2)n1` [Example 40, 2-(4-(3-(2-Methoxyphenyl)-1,2,4-oxadiazol-5-yl)but-1-ynyl)pyridine], the IC50 is under 10 µM. On to `COc1cccc(-c2noc(CCC#Cc3ccccn3)n2)c1` [Example 41, 2-(4-(3-(3-Methoxyphenyl)-1,2,4-oxadiazol-5-yl)but-1-ynyl)pyridine], for which the 50% inhibitory concentration (IC50) was under 10 µM. The compound `COc1ccc(-c2noc(CCC#Cc3ccccn3)n2)cc1` [Example 42, 2-(4-(3-(4-Methoxyphenyl)-1,2,4-oxadiazol-5-yl)but-1-ynyl)pyridine] displayed an IC50 of under 10 µM. With `Cc1cccc(-c2noc(CCC#Cc3ccccn3)n2)c1` [Example 43, 2-(4-(3-m-Tolyl-1,2,4-oxadiazol-5-yl)but-1-ynyl)pyridine] the figure was under 10 µM. Compound `Cc1ccc(-c2noc(CCC#Cc3ccccn3)n2)cc1` [Example 44, 2-(4-(3-p-Tolyl-1,2,4-oxadiazol-5-yl)but-1-ynyl)pyridine] registered a half-maximal inhibitory concentration (IC50) of under 10 µM.

`Clc1ccccc1-c1noc(CCC#Cc2ccccn2)n1` [Example 45, 2-(4-(3-(2-Chlorophenyl)-1,2,4-oxadiazol-5-yl)but-1-ynyl)pyridine] showed a concentration for half-maximal inhibition (IC50) of under 10 µM. `Clc1cccc(-c2noc(CCC#Cc3ccccn3)n2)c1` [Example 46, 2-(4-(3-(3-Chlorophenyl)-1,2,4-oxadiazol-5-yl)but-1-ynyl)pyridine] showed an IC50 of under 10 µM. As to `Cc1cccc(C)c1-c1noc(CCC#Cc2ccccn2)n1` [Example 48, 2-(4-(3-(2,6-Dimethylphenyl)-1,2,4-oxadiazol-5-yl)but-1-ynyl)pyridine], the IC50 is under 0.5 µM.

Compound `FC(F)(F)c1ccccc1-c1noc(CCC#Cc2ccccn2)n1` [Example 49] displayed an IC50 of under 10 µM. `C(#Cc1ccccn1)CCc1nc(-c2cccc3ccccc23)no1` [Example 50, 2-(4-(3-(Naphthalen-1-yl)-1,2,4-oxadiazol-5-yl)but-1-ynyl)pyridine] showed an IC50 of under 10 µM.

`Cc1cccc(-c2noc(CCC#Cc3ccccn3)n2)c1C` [Example 52, 2-(4-(3-(2,3-Dimethylphenyl)-1,2,4-oxadiazol-5-yl)but-1-ynyl)pyridine] came in with an IC50 of under 10 µM. In the case of `Clc1ccc(Cl)c(-c2noc(CCC#Cc3ccccn3)n2)c1` [Example 53, 2-(4-(3-(2,5-Dichlorophenyl)-1,2,4-oxadiazol-5-yl)but-1-ynyl)pyridine], the IC50 is under 10 µM. As for `Cc1ccc(C)c(-c2noc(CCC#Cc3ccccn3)n2)c1` [Example 54, 2-(4-(3-(2,5-Dimethylphenyl)-1,2,4-oxadiazol-5-yl)but-1-ynyl)pyridine], the IC50 is under 10 µM. Turning to `Clc1cccc(Cl)c1-c1noc(CCC#Cc2ccccn2)n1` [Example 55, 2-(4-(3-(2,6-Dichlorophenyl)-1,2,4-oxadiazol-5-yl)but-1-ynyl)pyridine], the IC50 was under 10 µM. `Clc1cccc(-c2noc(CCC#Cc3ccccn3)n2)c1Cl` [Example 56, 2-(4-(3-(2,3-Dichlorophenyl)-1,2,4-oxadiazol-5-yl)but-1-ynyl)pyridine] came in with an IC50 of under 10 µM. The value for `Cc1cccc(Cl)c1-c1noc(CCC#Cc2ccccn2)n1` [Example 58, 2-(4-(3-(2-Chloro-6-methylphenyl)-1,2,4-oxadiazol-5-yl)but-1-ynyl)pyridine] was under 10 µM.

What is called IC50 is the concentration needed to halve the response being measured. A high value points to lower potency.

For the origin of these results see US8883826B2, “Alkynyl derivatives as modulators of metabotropic glutamate receptors” (Addex Pharma SA, priority 2004, dated 2014).
